# Measured values: patent US6165984A, “Naringin and naringenin as inhibitors of acyl CoA-cholesterol-o-acyltransferase” (Korea Institute of Science & Technology, priority 1997, dated 2000)
# Assays:
# [1] = tested on: macrophage-lipid complex on the arterial endothelium; test: Fatty streak analysis: macrophage-lipid complex on main artery of cholesterol-fed rabbits (Example 6); type: in vivo, New Zealand White rabbit; conditions: 1 mg/kg Lovastatin
# Source text: RC4 diet comprises 7.6% moisture, 22.8% crude protein, 2.8% crude fat, 8.8% crude ash, 14.4% crude cellulose and 43.6% soluble nitrogen-free substances. The rabbits were bred for 6 weeks while being allowed free access to the diets and water. The rabbits bred in (Step 1) were sacrificed and their chest were incised. The main artery was cut out therefrom in a length of about 5 cm downward from the site 1 cm above the aortic valve and the fat surrounding the main artery was removed. The main artery was incised in the middle along the longitudinal axis and pinned to a dish. The moist artery was photographed and, then, staining of fatty streak was carried out in accordance with the method of […]., et al. (J. Lab. Clin. […] A part of the incised main artery was washed three times by 2 min. with anhydrous propylene glycol and stained for 30 min. with a saturated solution of Oil Red O (ORO, Sigma Co.) dissolved in propylene glycol. Thereafter, the artery was washed twice by 3 min. with 85% propylene glycol to remove remaining staining solution and, then washed with physical saline. The artery was photographed and the photograph was traced. The area of stained region (fatty streak region) was determined with an image analyzer (LEICA, Q-600, Germany) and its proportion (%) to the total arterial area was calculated. On the other hand, the other part of the main artery was stained in accordance with hematoxylin-eosin (H&E) and Masson's trichrome staining methods and observed under a microscope to confirm whether the macrophage-lipid complexes were accumulated in the intima, internus, elastic lamina and media.
# [2] = tested on: creatin kinase in the liver; conditions: in vivo; cited from earlier work
# hepatic cells = conditions: rabbits, 1% cholesterol diet, six weeks; 1 mg/kg Lovastatin, 0.1% naringin
# Experimental: The same procedure as in (Step 1) was repeated except that 30 three-month old New Zealand White rabbits (Yeonam Horticulture and Animal Husbandry College, Korea) each weighing about 2.5 to 2.6 kg were used in place of the rats, and the rabbits were fed for six weeks with three different diets, i.e., RC4 diet containing 1% cholesterol (Control group); 1% cholesterol plus 1 mg/kg Lovastatin® (Comparative group); and 1% cholesterol plus 0.1% naringin, respectively.
# Thereafter, the livers were separated from the rabbits and the histopathological observations were carried out as follows.
# The rabbits were anesthetized with an intramuscular injection of ketamine (75 mg/kg) and subjected to an abdominal incision. […] The fixed liver was washed sufficiently with water, dehydrated stepwise with 70%, 80%, 90% and 100% ethanol and, then, embedded in paraffin. The embedded liver was sectioned in 4 μm thickness with a microtome and stained with hematoxylin and eosin. The stained liver specimen was made transparent with xylene, mounted with permount, and then observed under a microscope to confirm the presence of lesions.
# [3] = Blood total cholesterol and triglyceride in cholesterol-fed rabbits (Example 6); type: in vivo, New Zealand White rabbit; conditions: 1% cholesterol diet, 6 weeks, 1 mg/kg Lovastatin, 0.1% naringin or naringenin
# Experimental: Blood samples were taken from the rats of the three dietary groups and plasma HDL fractions were separated therefrom by using HDL-cholesterol reagent (Sigma Chemical Co., Cat. No. 352-3) containing dextran-sulfate. Total cholesterol and HDL-cholesterol levels were determined by using Sigma Diagnostic Kit Cat. No. 352-100(Sigma Chemical Co., […] et al., Clin. Chem., 20, 470-475(1974)). Neutral lipid level was determined by using Sigma Diagnostic Kit Cat. No. 339-50(Bucolo, G. and David, H., Clin. Chem., 19, 476-482(1973)). The result is shown in Table III, wherein the total plasma cholesterol levels in naringin and naringenin-fed rat groups decreased by 32% and 18%, respectively, as compared with that of the control group. […] RC4 diet comprises 7.6% moisture, 22.8% crude protein, 2.8% crude fat, 8.8% crude ash, 14.4% crude cellulose and 43.6% soluble nitrogen-free substances. The rabbits were bred for 6 weeks while being allowed free access to the diets and water. Further, blood samples were taken from the rabbits and total cholesterol and triglyceride levels were determined in accordance with the same procedure in Example 4.
smiles,measurement,setting,value
"CC[C@H](C)C(=O)O[C@H]1C[C@@H](C)C=C2C=C[C@H](C)[C@H](CC[C@@H]3C[C@@H](O)CC(=O)O3)[C@H]21 [Lovastatin, reference compound]",layer of macrophage-lipid complex on the arterial endothelium (FIGS. 1A-1C),"[1]; 0.1% naringin, control: thick layer",no or very thin layers of macrophage-lipid complex
same,"area of macrophage-lipid complex accumulated on the arterial endothelium, compared to control group","[1]; 1% cholesterol diet, 6 weeks, 0.1% naringin or naringenin",decreased significantly
same,M-L (macrophage-lipid) complex area,"[1]; proportion of total arterial area, 1% cholesterol diet, 6 weeks, 0.1% naringin or naringenin, control 35",5%
same,adverse side effect,[2],increasing creatin kinase in the liver
same,microscopic features of the liver (FIGS. 2A-2C),hepatic cells,irregularly arranged and enlarged and a large amount of fat is deposited therein
same,Triglyceride,[3]; control 56,66 mg/dL
same,Total cholesterol,[3]; control 1143,1210 mg/dL
